Results published in US20110027352A1, “COMPOUNDS FOR USE IN THE TREATMENT OF NEUROPATHIC PAIN” (priority 2008, published 2011).
“Also recorded” adds a separate entry of the source. Counter-ions that a name gives are not always drawn.

Legend:
Assay type in all cases: in vivo, C57BL/6J mice
[1] = tested on: nociceptive sensitivity of the mice of the control (“Sham”) group; experiment: von Frey filament test in control (Sham) mice operated without cuff; conditions: for Sensitivity of control (Sham) animals under chronic treatment, recapitulation (FIG. 26): chronic treatment (14-21 days), doses and modes as in examples 2, 7, 9 to 14 and 20 (formoterol 0.5 mg/kg, terbutalin 5 mg/kg); for Control (Sham) mice after the first administration: intraperitoneal, first injection; for Nociceptive sensitivity of control (Sham) mice under chronic treatment: repeated injections, doses and modes as for the Cuff mice of the same example
Description: (§1) The experiments were carried out on adult male mice. The pharmacological experiments were carried out using C57BL/6J mice (3-to-6 weeks old on their arrival, Charles River, L'Arbresle, France).
(§2) The model is obtained by placing a polyethylene cuff around the main branch of the right sciatic nerve of each mouse. Before any surgical procedure, the mice were assigned to the various experimental groups in such a way that the baseline mechanical nociception threshold and the weight are equivalent between the various groups. The surgical procedure was carried out under ketamin-xylazin anesthesia (ketamin: 17 mg/ml, xylazin 2.5 mg/ml, intraperitoneal injection in a proportion of 4 ml/kg) (limited liability company Centravet, Taden, France). The common branch of the sciatic nerve was exposed and a section 2 mm long of a hollow PE-20 polyethylene tube (“Harvard Apparatus”, Les Ulis, France) was placed around said branch (“Cuff” group). […] Control mice were operated on according to the same procedure, but without placing the cuff (“Sham” group). The experimental groups are made up of at least 4 mice for each control (“Sham”) group and at least 5 mice for each neuropathic (“Cuff”) group.
(§3) The mice are placed in transparent Plexiglas (registered trademark) boxes (7 cm×9 cm×7 cm) placed on a raised grid. Before the test, the mice are allowed to become accustomed to this device for 15 minutes. During the test, the von Frey filaments are applied to the plantar surface of each back foot according to ascending forces (from 0.16 g up to a foot withdrawal response, or up to a maximum of 10 g). Each filament is tested 5 times per foot and the threshold is defined by the presence of 3 or more withdrawals observed over the 5 tests. Before the surgery as described above, the animals were pretested in order to establish their baseline nociceptive response. During the chronic treatment experiments and those of repeated injection of antagonists, the tests are carried out in the mornings before the first injection of the day. During the acute agonist injection experiments, the tests are carried out after the first injection according to the time course as presented on the graphs.
(§4) For all the treatments carried out by injection, said injections were given intraperitoneally in a volume of 50 microL per 10 mg of body weight.

[2] = tested on: mechanical allodynia of the neuropathic (“Cuff”) mice; experiment: Sciatic nerve cuff murine model of neuropathic pain, von Frey filament test in neuropathic (Cuff) mice; conditions: for Allodynia in neuropathic (Cuff) animals after chronic treatment, recapitulation (FIG. 25): chronic treatment (14-21 days), doses and modes as in examples 7, 9 to 14 and 20 (formoterol 0.5 mg/kg, terbutalin 5 mg/kg); for Mechanical allodynia of Cuff mice after the first (acute) injection: mice neuropathic for 2 weeks; for Effect on neuropathic allodynia acutely after the first injection, summary statement: first injection of the agonist, doses as in examples 7, 9, 11 and 15
Description: as §1
All the experiments began with mice that were 6-to-9 weeks old. […] For all the other experiments, the mice were combined at four to five per cage and kept under alternating 12-hour day/night (light at 6 am) with food and water ad libitum.
as §2, §3
The surgery for installing the cuff corresponds to day 0.
as §4

[3] = tested on: mechanical allodynia of the neuropathic (“Cuff”) mice; experiment: Cotreatment with adrenoreceptor antagonists in Cuff mice relieved by chronic nortriptylin or beta-agonist treatment, von Frey test; conditions: for Effect of coadministered beta2-adrenoreceptor antagonist ICI 118,551 on the allodynia of agonist-treated Cuff mice: ICI 118,551 2 mg/kg intraperitoneal, after 3 weeks of agonist treatment (doses as in chronic treatment; terbutalin 0.5 mg/kg), 3 to 6 days of cotreatment; for Effect of ICI 118,551 on the therapeutic effect of chronic agonist treatment on neuropathic allodynia, summary statement: chronic treatment with the agonist plus beta2-adrenoreceptor antagonist ICI 118,551; for Blocking of the effect of antidepressants on neuropathic allodynia by repeated antagonist treatment, summary statement: doses as in examples 3 to 6
Description: as §2
For the tests, in the examples which follow, the pressure is exerted on the foot of the mice by means of von Frey filaments (Bioseb, Chaville, France) (Benbouzid, M. et al. Biological Psychiatry 63:633-636 (2008) (10) and Benbouzid, M. et al. European Journal of Pain 12:591-599 (2008) (11)). The mice are placed in transparent Plexiglas (registered trademark) boxes (7 cm×9 cm×7 cm) placed on a raised grid. Before the test, the mice are allowed to become accustomed to this device for 15 minutes. During the test, the von Frey filaments are applied to the plantar surface of each back foot according to ascending forces (from 0.16 g up to a foot withdrawal response, or up to a maximum of 10 g). Each filament is tested 5 times per foot and the threshold is defined by the presence of 3 or more withdrawals observed over the 5 tests. Before the surgery as described above, the animals were pretested in order to establish their baseline nociceptive response. During the chronic treatment experiments and those of repeated injection of antagonists, the tests are carried out in the mornings before the first injection of the day. During the acute agonist injection experiments, the tests are carried out after the first injection according to the time course as presented on the graphs.
The procedure for intrathecal (i.t.) injection of the beta2-adrenoreceptor antagonist ICI 118,551 (3 μg in 10 μl) is carried out under halothane gas anesthesia according to the protocol described by Inoue et al. (Nature Medicine 2004, 10:712-718 (12)). These i.t. injections are carried out just before the intraperitoneal injection of salbutamol (2 mg/kg, i.p.). A 27-gauge injection needle connected to a 50 μl Hamilton syringe is inserted, between the L5 and L6 vertebrae, into the subarachnoid space. The correct placement of the needle is verified by the presence of a reflex movement of the tail of the mouse. The mice are pretested before this cotreatment procedure, and then cotreated twice (a morning and the corresponding evening) before being retested the following morning for their mechanical nociceptive sensitivity.

[4] = 0.5 mg/kg, injection twice a day
[5] = antagonist 2 mg/kg intraperitoneal with nortriptylin 5 mg/kg twice a day, after 3 weeks of nortriptylin (metoprolol, ICI 118,551: for 6 days)
[6] = intraperitoneal antagonist, doses as for the Cuff mice of the same example (ICI 118,551 2 mg/kg, yohimbin 2 mg/kg, propranolol 5 mg/kg), with or without cotreatment

CC(C)NCC(O)c1ccc(O)c(O)c1 (racemic) [isoprenalin, DL-isoproterenol chloride]
Sensitivity of control (Sham) animals under chronic treatment, recapitulation (FIG. 26) [1]: do not affect the control animals; also recorded: does not aspecifically affect the sensitivity of the control animals | Mechanical allodynia in neuropathic (Cuff) mice after chronic treatment [2, 4]: completely suppresses the mechanical allodynia | Allodynia in neuropathic (Cuff) animals after chronic treatment, recapitulation (FIG. 25) [2]: relieve this allodynia; also recorded: causes the neuropathic pain, for example the neuropathic allodynia, to completely disappear | Effect of coadministered beta2-adrenoreceptor antagonist ICI 118,551 on the allodynia of agonist-treated Cuff mice [3]: causes the allodynia to reappear | Effect of ICI 118,551 on the therapeutic effect of chronic agonist treatment on neuropathic allodynia, summary statement [3]: blocks the therapeutic effect

COCCc1ccc(OCC(O)CNC(C)C)cc1 (racemic) [metoprolol, (+/−)-metoprolol (+)-tartrate]
Effect of antagonist cotreatment on the therapeutic benefit of nortriptylin in Cuff mice [3, 5]: has no influence on the therapeutic benefit | Blocking of the effect of antidepressants on neuropathic allodynia by repeated antagonist treatment, summary statement [3]: only the beta2-adrenoreceptor antagonist blocks the effect of antidepressants

CC(C)NCC(O)COc1cccc2ccccc12 (racemic) [propranolol, (+/−)-propranolol hydrochloride]
Nociceptive sensitivity of control (Sham) mice under antagonist injections ([1]; intraperitoneal antagonist, doses as for the Cuff mice of the same example (ICI 118,551 2 mg/kg, yohimbin 2 mg/kg, propranolol 5 mg/kg), with or without cotreatment, hydrochloride): not affected; also recorded: does not affect the response of the control animals | Effect of antagonist cotreatment on the therapeutic benefit of nortriptylin in Cuff mice ([3]; antagonist 5 mg/kg intraperitoneal with nortriptylin 5 mg/kg twice a day, after 3 weeks of nortriptylin): causes the allodynia to reappear in a few days | Blocking of the effect of antidepressants on neuropathic allodynia by repeated antagonist treatment, summary statement [3]: blocks the therapeutic effect of antidepressants

CC(C)NCC(O)c1ccc(NS(C)(=O)=O)cc1.Cl (racemic) [sotatol, (+/−) sotatol hydrochloride]
Effect of antagonist cotreatment with nortriptylin, compared with propranolol ([3]; 2 mg/kg in place of propranolol 5 mg/kg, same results = as propranolol (allodynia reappears in Cuff, Sham not affected)): same results

Cc1ccc(OCC(O)C(C)NC(C)C)c2c1CCC2 (stereo not shown) [ICI 118,551]
Nociceptive sensitivity of control (Sham) mice under antagonist injections ([1]; ICI 118,551 intraperitoneal (2 mg/kg) or intrathecal (3 μg in 10 μl), with salbutamol): not affected | Nociceptive sensitivity of control (Sham) mice under antagonist injections [1, 6]: not affected; also recorded: does not affect the response of the control animals | Time to reappearance of allodynia after the beginning of the cotreatment with nortriptylin ([3]; ICI 118,551 2 mg/kg intraperitoneal coadministered with nortriptylin, Cuff mice): ≤ 48 h | Effect of antagonist cotreatment on the therapeutic benefit of nortriptylin in Cuff mice [3, 5]: leads to reappearance of the neuropathic allodynia | Blocking of the effect of antidepressants on neuropathic allodynia by repeated antagonist treatment, summary statement [3]: blocks the effect of antidepressants

CCc1ccccc1OC[C@@H](O)CN[C@H]1CCCc2ccccc21 [SR59230A]
Effect of antagonist cotreatment on the therapeutic benefit of nortriptylin in Cuff mice ([3]; antagonist 2.5 mg/kg intraperitoneal for 6 days with nortriptylin, after 3 weeks of nortriptylin): has no influence on the therapeutic benefit | Blocking of the effect of antidepressants on neuropathic allodynia by repeated antagonist treatment, summary statement [3]: only the beta2-adrenoreceptor antagonist blocks the effect of antidepressants

CC(C)NCC(O)COc1ccc(CC(N)=O)cc1 (stereo not shown) [atenolol]
Effect of antagonist cotreatment with nortriptylin, compared with metoprolol ([3]; 5 mg/kg in place of metoprolol 2 mg/kg, same results = as metoprolol (no influence on the therapeutic benefit)): same results

CN(C)C(=O)Oc1cc(OC(=O)N(C)C)cc(C(O)CNC(C)(C)C)c1 (stereo not shown) [bambuterol]
Control (Sham) mice after the first administration ([1]; bambuterol 0.5 mg/kg): unaffected | Sensitivity of control (Sham) animals under chronic treatment, recapitulation (FIG. 26) [1]: do not affect the control animals; also recorded: does not aspecifically affect the sensitivity of the control animals | Nociceptive sensitivity of control (Sham) mice under chronic treatment [1]: not affected | Mechanical allodynia in neuropathic (Cuff) mice after chronic treatment [2, 4]: completely suppresses the mechanical allodynia | Mechanical allodynia of Cuff mice after the first (acute) injection ([2]; 0.5 mg/kg, intraperitoneal): has no anti-allodynia effect | Allodynia in neuropathic (Cuff) animals after chronic treatment, recapitulation (FIG. 25) [2]: relieve this allodynia; also recorded: causes the neuropathic pain, for example the neuropathic allodynia, to completely disappear | Effect on neuropathic allodynia acutely after the first injection, summary statement [2]: not observed acutely after the first injection | Effect of coadministered beta2-adrenoreceptor antagonist ICI 118,551 on the allodynia of agonist-treated Cuff mice [3]: causes the allodynia to reappear | Effect of ICI 118,551 on the therapeutic effect of chronic agonist treatment on neuropathic allodynia, summary statement [3]: blocks the therapeutic effect

CC(C)(C)NCC(O)c1cc(Cl)c(N)c(Cl)c1 (stereo not shown) [clenbuterol]
Sensitivity of control (Sham) animals under chronic treatment, recapitulation (FIG. 26) [1]: do not affect the control animals; also recorded: does not aspecifically affect the sensitivity of the control animals | Control (Sham) mice after the first administration ([1]; clenbuterol 0.3 mg/kg): unaffected | Nociceptive sensitivity of control (Sham) mice under chronic treatment [1]: not affected | Mechanical allodynia of Cuff mice after the first (acute) injection ([2]; 0.3 mg/kg, intraperitoneal): has no effect on the mechanical allodynia | Mechanical allodynia in neuropathic (Cuff) mice after chronic treatment ([2]; 0.3 mg/kg, intraperitoneal, twice a day): completely suppresses the mechanical allodynia | Allodynia in neuropathic (Cuff) animals after chronic treatment, recapitulation (FIG. 25) [2]: relieve this allodynia; also recorded: causes the neuropathic pain, for example the neuropathic allodynia, to completely disappear | Effect on neuropathic allodynia acutely after the first injection, summary statement [2]: not observed acutely after the first injection | Effect of coadministered beta2-adrenoreceptor antagonist ICI 118,551 on the allodynia of agonist-treated Cuff mice [3]: causes the allodynia to reappear | Effect of ICI 118,551 on the therapeutic effect of chronic agonist treatment on neuropathic allodynia, summary statement [3]: blocks the therapeutic effect

CC(Cc1ccc(O)cc1)NCC(O)c1cc(O)cc(O)c1 (stereo not shown) [fenoterol]
Sensitivity of control (Sham) animals under chronic treatment, recapitulation (FIG. 26) [1]: do not affect the control animals; also recorded: does not aspecifically affect the sensitivity of the control animals | Nociceptive sensitivity of control (Sham) mice under chronic treatment [1]: not affected | Mechanical allodynia of Cuff mice after the first (acute) injection ([2]; 0.7 mg/kg, intraperitoneal): has no effect on the mechanical allodynia | Mechanical allodynia in neuropathic (Cuff) mice after chronic treatment ([2]; 0.7 mg/kg, twice a day): completely suppresses the mechanical allodynia | Allodynia in neuropathic (Cuff) animals after chronic treatment, recapitulation (FIG. 25) [2]: relieve this allodynia; also recorded: causes the neuropathic pain, for example the neuropathic allodynia, to completely disappear | Effect on neuropathic allodynia acutely after the first injection, summary statement [2]: not observed acutely after the first injection | Effect of coadministered beta2-adrenoreceptor antagonist ICI 118,551 on the allodynia of agonist-treated Cuff mice [3]: causes the allodynia to reappear | Effect of ICI 118,551 on the therapeutic effect of chronic agonist treatment on neuropathic allodynia, summary statement [3]: blocks the therapeutic effect

CC(C)NCC(O)c1cc(O)cc(O)c1 (stereo not shown) [metaproterenol]
Sensitivity of control (Sham) animals under chronic treatment, recapitulation (FIG. 26) [1]: do not affect the control animals; also recorded: does not aspecifically affect the sensitivity of the control animals | Mechanical allodynia in neuropathic (Cuff) mice after chronic treatment ([2]; 1 mg/kg, injection twice a day): completely suppresses the mechanical allodynia | Mechanical allodynia in neuropathic (Cuff) mice after chronic application of a gel to the skin ([2]; 0.1 ml of gel twice a day, 1 mg/ml metaproterenol hemisulfate in 5% hydroxyethylcellulose gel, from 8 days after surgery): relieves the mechanical allodynia; also recorded: relieves neuropathic allodynia | Allodynia in neuropathic (Cuff) animals after chronic treatment, recapitulation (FIG. 25) [2]: relieve this allodynia; also recorded: causes the neuropathic pain, for example the neuropathic allodynia, to completely disappear

CCC(NC(C)C)C(O)c1ccc(O)c2[nH]c(=O)ccc12 (stereo not shown) [procaterol]
Sensitivity of control (Sham) animals under chronic treatment, recapitulation (FIG. 26) [1]: do not affect the control animals; also recorded: does not aspecifically affect the sensitivity of the control animals | Mechanical allodynia in neuropathic (Cuff) mice after chronic treatment ([2]; 0.8 mg/kg, injection twice a day): completely suppresses the mechanical allodynia | Allodynia in neuropathic (Cuff) animals after chronic treatment, recapitulation (FIG. 25) [2]: relieve this allodynia; also recorded: causes the neuropathic pain, for example the neuropathic allodynia, to completely disappear | Effect of ICI 118,551 on the therapeutic effect of chronic agonist treatment on neuropathic allodynia, summary statement [3]: blocks the therapeutic effect

CC(NCCc1ccc(O)cc1)C(O)c1ccc(O)cc1 (stereo not shown) [ritodrin]
Sensitivity of control (Sham) animals under chronic treatment, recapitulation (FIG. 26) [1]: do not affect the control animals; also recorded: does not aspecifically affect the sensitivity of the control animals | Mechanical allodynia in neuropathic (Cuff) mice after chronic treatment ([2]; 10 mg/kg, injection twice a day): completely suppresses the mechanical allodynia | Allodynia in neuropathic (Cuff) animals after chronic treatment, recapitulation (FIG. 25) [2]: relieve this allodynia; also recorded: causes the neuropathic pain, for example the neuropathic allodynia, to completely disappear | Effect of coadministered beta2-adrenoreceptor antagonist ICI 118,551 on the allodynia of agonist-treated Cuff mice [3]: causes the allodynia to reappear | Effect of ICI 118,551 on the therapeutic effect of chronic agonist treatment on neuropathic allodynia, summary statement [3]: blocks the therapeutic effect

COC(=O)[C@@H]1[C@H]2C[C@H]3c4[nH]c5ccccc5c4CCN3C[C@@H]2CC[C@@H]1O [yohimbin]
Nociceptive sensitivity of control (Sham) mice under antagonist injections [1, 6]: not affected | Effect of antagonist cotreatment on the therapeutic benefit of nortriptylin in Cuff mice [3, 5]: has no influence on the therapeutic benefit | Blocking of the effect of antidepressants on neuropathic allodynia by repeated antagonist treatment, summary statement [3]: ineffective in blocking the analgesic effect of antidepressants
